Laboratory results from ChEMBL document CHEMBL1127402, “Orally active non-peptide fibrinogen receptor (GpIIb/IIIa) antagonists: identification of 4-[4-[4-(aminoiminomethyl)phenyl]-1-piperazinyl]-1-piperidineacetic acid as a long-acting, broad-spectrum antithrombotic agent” (J Med Chem, 1994).

Organism: Homo sapiens
Assay: Inhibition of 10 uM ADP induced aggregation in human gel filtered platelets in the presence fibrinogen and aspirin.
Type: functional

Row | Structure (SMILES) | IC50 [nM]
1 | CCN(CC)CCO[C@H]1CC[C@H]([C@H]2CC[C@](O)(CC(=O)O)CC2)CC1 | 54000
2 | N=C(N)c1ccc(N2CCN(C3CCN(CC(=O)O)CC3)CC2)cc1 | 37
3 | N/C(=N\CC(F)(F)F)c1ccc(-c2ccc(C3=CCC(O)(CC(=O)O)CC3)cc2)cc1 (centres undefined) | 210
4 | N=C(N)c1ccc(-c2ccc(N3CC[N+](CC(=O)O)(Cc4ccccc4)CC3)cc2)cc1 | 31
